Experimental data as given in US9676786B2, “Pharmacologically active compounds” (The University of Liverpool, priority 2013, dated 2017).
Read-outs that look alike come from different tables or passages of the source.

How the values were obtained:
α1 glycine receptor = α1 glycine receptor (Homo sapiens (Human), UniProt P23415); assay: Expression and electrophysiological characterization of glycine receptor activity (patch/voltage clamp); type: cell-based; settings: modulation of agonist induced currents at glycine EC20; means ± s.d.
Chain of α1 glycine receptor (P23415 29-457 limits assumed): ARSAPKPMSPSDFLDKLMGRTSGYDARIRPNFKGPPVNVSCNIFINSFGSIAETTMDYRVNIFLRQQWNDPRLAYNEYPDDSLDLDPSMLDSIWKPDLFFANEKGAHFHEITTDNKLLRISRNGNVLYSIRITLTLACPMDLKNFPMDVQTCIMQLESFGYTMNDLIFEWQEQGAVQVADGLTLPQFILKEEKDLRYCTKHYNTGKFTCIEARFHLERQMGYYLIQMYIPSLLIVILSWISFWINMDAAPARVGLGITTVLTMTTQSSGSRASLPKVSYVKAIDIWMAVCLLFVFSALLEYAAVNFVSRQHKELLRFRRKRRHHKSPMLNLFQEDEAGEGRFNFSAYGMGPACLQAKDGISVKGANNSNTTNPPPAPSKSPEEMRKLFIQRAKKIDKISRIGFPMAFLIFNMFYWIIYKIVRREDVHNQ
Method: Human embryonic kidney (HEK) 293 cells (ATCC CRL 1573) and/or Xenopus laevis oocytes were used for expressing the human a1-3 glycine receptor subunit as well as human a1, b3, g2 GABA receptor subunit cDNAs inserted into mammalian expression vectors. Patch- and voltage-clamp recording from receptor expressing cells was performed at a holding potential of −70 mV in normal Ringer solution and digitized for analyses. Dose-response curves of agonist induced peak currents (I) were normalized to the maximal current value obtained and fitted with the sigmoidal Hill equation using a Gauss Marquardt iteration, where EC50 represents the glycine/GABA concentration resulting in a half maximal response. Effects of the compounds tested on agonist induced currents were analysed after superfusing the cells with the respective compound for 5 seconds prior to and during agonist application and dose-response curves of modulated currents were determined in the presence of agonist concentrations eliciting a response corresponding to 20% of the maximal inducible current (EC20 value). Results represent means±s.d. and the significance of the data was evaluated using Student's paired t test and considered to be statistically significant at P<0.05.

neuropathic rats [1] = assay: Mechanical hyperalgesia, paw withdrawal thresholds in neuropathic rats (partial sciatic nerve ligation); type: in vivo, rat; settings: neuropathic Wistar rats
Source text: (§1) The wound was closed with skin clips.
(§2) Control animals received vehicle alone.

neuropathic rats [2] = assay: Cold sensitivity (10° C. cold plate), paw withdrawal latencies in neuropathic rats; type: in vivo, rat; settings: neuropathic Wistar rats
Source text: as §1, §2

neuropathic rats [3] = assay: Comparison of LT-01-25 and LT-01-89: ipsilateral withdrawal latencies to cold (10° C.) stimulus in neuropathic rats; type: in vivo, rat; settings: male SD rats
[4] = Pharmacokinetic evaluation, oral dosing in rats; type: in vivo, rat; settings: 10 mg/kg oral
Method: • Dose—10 mg/kg (5 mL/kg) • Route—ORAL • Vehicles—10% DMSO/10% Solutol and SSV • Time—24 h • Procedure Number—6 Vehicles • 10% DMSO/10% Solutol/80% Saline • 1) Compound was weighed out into a clean vial. • 2) DMSO was added into the vial; the vial was vortexed and sonicated it for 15 min. • 3) Solutol HS 15 was heated at 50° C. until a liquid formed, and then was added into the vial. The vial was vortexed for 1-2 min. • 4) 0.9% Saline solution was added to the vial. The vial was vortexed and then sonicated for 10 min. Standard Suspension Vehicle (SSV) • 1) A solution of SSV was made using 0.5% Sodium carboxymethylcellulose, 0.5% Benzyl alcohol, 0.4% Tween80 and 98.6% saline (0.9%) • 2) Compound was weighed out into a clean vial • 3) SSV solution was added into the vial; the vial was vortexed and sonicated it for 15 min. Fasted Rats
Fasted rats were fasted overnight and given access to food immediately after dosing.
• 1) Rats were manually restrained and given a 10 mg/kg oral dose of compound at 5 mL/kg. • 2) At designated time points (0.25, 0.5, 1, 3, 5, 7 and 24 hours) the rats were anaesthetised using isoflurane. • 3) Approximately 300 μL of blood was taken from the tail vein using a 1.5 inch needle treated with heparin and collected into 1.5 mL eppendorf tubes. • 4) After sampling, pressure was applied to the puncture until bleeding ceased. The animals were returned to their cages and given free access to food and water. • 5) Blood samples were stored on ice and then centrifuged at 13,000 rpm for 15 min to separate the plasma. • 6) 150 μL of the plasma was treated with 300 μL of ACN:MeOH (1:1) solution containing the internal standard. The samples were then centrifuged for a further 15 min at 13,000 rpm. • 7) 200 μL of the supernatant was collected and placed in LC-MS vials for analysis. All samples were stored at −80° C. Results

neuropathic rats [5] = assay: Comparison of LT-01-25 and LT-01-89: ipsilateral paw withdrawal thresholds to mechanical pressure in neuropathic rats; type: in vivo, rat; settings: male SD rats
Method: Male, SD rats. n=6/group. Vehicle: 10% DMSO/10% Solutol HS15/80% saline.
• 1) In rats a peripheral neuropathy was induced by partial ligation of the sciatic nerve in one hind limb. • 2) Two weeks (12-15 days) after induction of peripheral neuropathy stable mechanical (tactile) allodynia was induced in the hind paw of the affected limb. • 3) Five treatment groups of male SD rats (n=8) were used: vehicle control (drug formulation), 3 drug doses, and a positive control, lamotrigine (30 mg/kg). Animals were randomized between groups and the experiment was carried out using blinded conditions. The study was split with n=4/group in each experiment. • 4) Baseline behavioural measurements were obtained prior to surgery and at intervals post-surgery. Predose behavioural measurements were obtained by measuring paw withdrawal thresholds 12-15 days following nerve ligation. • 5) Compound efficacy was determined by measuring paw withdrawal thresholds at specified intervals following vehicle/compound treatment. Methods Animals
Animals were maintained in a controlled lighting environment and given food and water ad libitum. Male Sprague Dawley rats (120-140 g at time of surgery) were used.
Rats were fasted overnight with free access to water and fed 4 hours post-dose.
Tests compounds as well as Lamotrigine (30 mg/kg, volume: 10 ml/kg)) were prepared in the designated formulation (10% DMSO, Solutol HS 15/80% and 0.9% saline for p.o. administration) and administered via the chosen route.
Rats were anaesthetised (isoflurane/O2 inhalation), the left sciatic nerve was exposed at mid-thigh level through a small incision and ⅓ to ½ of the nerve thickness tightly ligated within a 7.0 silk suture. The wound was closed with skin clips. Animals were allowed to recover and compounds administered 12-15 days following surgery.
Compound/vehicle were administered at specified doses. Following treatment, further readings were taken; 1, 3, 6 and 24 hour after p.o. administration.

[6] = Cerebrospinal fluid (CSF) levels after oral dosing; type: in vivo; settings: p.o. dose 3 mg/kg, after 2 hr, fasted male SD rat
[7] = Human microsomal stability; type: in vitro ADME
Method: The metabolic stability assay was performed by incubating each test compound (1 μM) with human liver microsomes in duplicate at 37° C. and 0.4 mg/mL protein concentration. The metabolic reaction was initiated by the addition of a NADPH-regenerating system (i.e. NADPH is the cofactor required for CYP450-mediated metabolism) and quenched at various time points over the 60 minute incubation period by the addition of acetonitrile. Control samples (containing no NADPH) were included (and quenched at 2, 30 and 60 minutes) to monitor for potential degradation in the absence of cofactor. Samples were analysed by UPLC-MS (Waters/Micromass Xevo G2 QTOF) under positive electrospray ionisation and MS spectral data acquired in a mass range of 80 to 1200 Daltons.
Test compound concentration versus time data were fitted to an exponential decay function to determine the first-order rate constant for substrate depletion. In cases where clear deviation from first-order kinetics was evident, only the initial linear portion of the profile was utilised to determine the degradation rate constant (k). Each substrate depletion rate constant was then used to calculate: [1] a degradation half-life, [2] an in vitro intrinsic clearance value (CLint, in vitro); [3] a predicted in vivo hepatic intrinsic clearance value (CLint); [4] a predicted in vivo blood clearance value (CLblood); and [5] a predicted in vivo hepatic extraction ratio (EH).
• 1) The substrate concentration employed is well below the apparent KM for substrate turnover; and, • 2) There is no significant product inhibition, nor is there any mechanism-based inactivation of enzyme. The use of hepatic microsomes in the prediction of the in vivo hepatic extraction ratio has two further inherent assumptions (Obach, 1999) which: • 1) NADPH-dependent oxidative metabolism predominates over other metabolic routes (i.e. direct conjugative metabolism, reduction, hydrolysis, etc.); and, • 2) Rates of metabolism and enzyme activities in vitro are truly reflective of those that exist in vivo. Data should be considered within these terms of reference.

Rat microsomal stability = type: in vitro ADME; settings: for half-life at 1 μM: rat, rat microsomes
Source text: Rat and human microsomal stability data was obtained using well established protocols known to those skilled in the art.

[8] = Rat microsomes, 1 μM, second set marked *
[9] = 10% DMSO/10% Solutol/80% Saline, fasted rats
[10] = 10% DMSO/10% Solutol/80% Saline, non-fasted rats
[11] = rat, plasma, po, 10 mg/kg, 10% DMSO/10% Solutol/80% Saline, fasted rats
[12] = rat, plasma, po, 10 mg/kg, 10% DMSO/10% Solutol/80% Saline, non-fasted rats
[13] = rat, plasma, po, 10 mg/kg, SSV, fasted rats
[14] = rat, plasma, po, 10 mg/kg, SSV, non-fasted rats

## CC(C)c1cc(C(=O)N2CCN(C)CC2)cc(C(C)C)c1O [Example 6, (4-Hydroxy-3-5-diisopropylphenyl)(4-methylpiperazin-1-yl)methanone]
α1 glycine receptor
  EC50: 1.2 pM

## Nc1nnc(-c2cccc(Cl)c2Cl)c(N)n1 [lamotrigine, reference compound]
Neuropathic rats [1]; positive control
  Reversal, mechanical (positive control): 65%
Neuropathic rats [2]; positive control
  Reversal, cold (positive control): 72%

## CC(C)c1cc(C(=O)N2CC(F)C2)cc(C(C)C)c1O [Example 3, (3-Fluoroazetidin-1-yl)(4-hydroxy-3,5-diisopropylphenyl) methanone]
α1 glycine receptor
  EC50: 430 pM

## CC(C)c1cc(C(=O)N2CCO[C@H](C)C2)cc(C(C)C)c1O [Example 2, (R)-(4-(hydroxy)-3,5-diisopropylphenyl)(2-methylmorpholino)methanone]
α1 glycine receptor
  EC50: 60 pM

## CC(C)(C)c1cc(C(=O)N2CCOCC2)cc(C(C)(C)C)c1O [LT-01-89, (4-(hydroxy)-3,5-di-tertbutyl)(morpholino)methanone, reference compound]
Neuropathic rats [3]; 30 mg/kg p.o., 1 hr
  Cold (10° C.) Stimulus Percentage reversal of predose Hyperalgesia: 1 hr - - - 70%
Neuropathic rats [3]; 30 mg/kg p.o., 3 hr
  Cold (10° C.) Stimulus Percentage reversal of predose Hyperalgesia: 3 hr - - - 65%
Neuropathic rats [3]; 30 mg/kg p.o., 6 hr
  Cold (10° C.) Stimulus Percentage reversal of predose Hyperalgesia: 6 hr - - - 10%
[4]; SSV, non-fasted rats
  AUC∞ (area): 5931.7 ng·h/mL
  CL (area)/kg: 17.947 mL/min/kg
  Cmax: 471.2 ng/mL
  Half Life: 20.4 h
  Tmax: 1.2 h
  Vd (area)/kg: 32.7299 L/kg
Neuropathic rats [5]; 30 mg/kg p.o., 1 hr
  Mechanical pressure Percentage reversal of predose hyperalgesia: 1 hr - - - 70%
Neuropathic rats [5]; 30 mg/kg p.o., 3 hr
  Mechanical pressure Percentage reversal of predose hyperalgesia: 3 hr - - - 50%
Neuropathic rats [5]; 30 mg/kg p.o., 6 hr
  Mechanical pressure Percentage reversal of predose hyperalgesia: 6 hr - - - 20%
[6]
  CSF levels: 27 ng/mL
  CSF levels as multiple of EC50: (180 × EC50)
[7]; human microsomes, 1 μM
  Cl (values marked *): 6.2 mL/min/kg (Cl) *
  t1/2 (values marked *): 138.6 min (t1/2) *
Rat microsomal stability; Rat microsomes, 1 μM
  Cl: 20.38 mL/min/kg
  t1/2: 2.02 h
Rat microsomal stability; [8]
  Cl (values marked *): 5.26 mL/min/kg (Cl)*
  t1/2 (values marked *): 165 min (t1/2)*

## CC(C)c1cc(C(=O)N2CCOCC2)cc(C(C)C)c1O [LT-01-25, (4-(hydroxy)-3,5-diisopropylphenyl)(morpholino)methanone]
Neuropathic rats [3]; 10 mg/kg p.o., 1 hr
  Cold (10° C.) Stimulus Percentage reversal of predose Hyperalgesia: 1 hr - - - 85%
Neuropathic rats [3]; 10 mg/kg p.o., 3 hr
  Cold (10° C.) Stimulus Percentage reversal of predose Hyperalgesia: 3 hr - - - 35%
Neuropathic rats [3]; 10 mg/kg p.o., 6 hr
  Cold (10° C.) Stimulus Percentage reversal of predose Hyperalgesia: 6 hr - - - 35%
[4]; [9]
  CL (area)/kg: 19.532 mL/min/kg
  Vd (area)/kg: 2.3006 L/kg
[4]; [10]
  CL (area)/kg: 8.423 mL/min/kg
  Vd (area)/kg: 0.9737 L/kg
[4]; SSV, fasted rats
  CL (area)/kg: 9.193 mL/min/kg
  Vd (area)/kg: 1.1426 L/kg
[4]; SSV, non-fasted rats
  CL (area)/kg: 8.662 mL/min/kg
  Half Life: 3.6 h
  Vd (area)/kg: 2.7109 L/kg
[4]; [11]
  AUC(0-inf): 8530 ng·h/mL
  half-life: 1.4 h
[4]; rat, plasma, po, 10 mg/kg, 10% DMSO/10% Solutol/80% Saline, fasted rats, read-out: Cmax
  Cmax: 2420 ng/mL
[4]; rat, plasma, po, 10 mg/kg, 10% DMSO/10% Solutol/80% Saline, fasted rats, read-out: Tmax
  Tmax: 0.3 h
[4]; [12]
  AUC(0-inf): 20400 ng·h/mL
  half-life: 1.4 h
[4]; rat, plasma, po, 10 mg/kg, 10% DMSO/10% Solutol/80% Saline, non-fasted rats, read-out: Cmax
  Cmax: 1710 ng/mL
[4]; rat, plasma, po, 10 mg/kg, 10% DMSO/10% Solutol/80% Saline, non-fasted rats, read-out: Tmax
  Tmax: 4 h
[4]; [13]
  AUC(0-inf): 18100 ng·h/mL
  half-life: 1.4 h
[4]; rat, plasma, po, 10 mg/kg, SSV, fasted rats, read-out: Cmax
  Cmax: 2590 ng/mL
[4]; rat, plasma, po, 10 mg/kg, SSV, fasted rats, read-out: Tmax
  Tmax: 1 h
[4]; [14]
  AUC(0-inf): 19000 ng·h/mL
  half-life: 3.62 h
[4]; rat, plasma, po, 10 mg/kg, SSV, non-fasted rats, read-out: Cmax
  Cmax: 2120 ng/mL
[4]; rat, plasma, po, 10 mg/kg, SSV, non-fasted rats, read-out: Tmax
  Tmax: 0.25 h
Neuropathic rats [5]; 10 mg/kg p.o., 1 hr
  Mechanical pressure Percentage reversal of predose hyperalgesia: 1 hr - - - 80%
Neuropathic rats [5]; 10 mg/kg p.o., 3 hr
  Mechanical pressure Percentage reversal of predose hyperalgesia: 3 hr - - - 90%
Neuropathic rats [5]; 10 mg/kg p.o., 6 hr
  Mechanical pressure Percentage reversal of predose hyperalgesia: 6 hr - - - 40%
Neuropathic rats [1]; p.o., peak occurred at 3h
  Peak reversal, mechanical (paw pressure): 90%
[6]
  CSF levels: 95 ng/mL
  CSF levels as multiple of EC50: (900 × EC50)
Neuropathic rats [2]; p.o., peak occurred at 1h
  Peak reversal, cold (10° C. cold plate): 93%
[7]; human liver microsomes, read-out: t1/2 (values marked *)
  half-life at 1 μM: 8.25 h
[7]; human microsomes, 1 μM
  Cl (values marked *): 2.7 mL/min/kg (Cl) *
Rat microsomal stability; Rat microsomes, 1 μM
  Cl: 3.35 mL/min/kg
Rat microsomal stability; [8]
  Cl (values marked *): 1.07 mL/min/kg (Cl)*
Rat microsomal stability; read-out: t1/2
  half-life at 1 μM: 12.3 h
Rat microsomal stability; second set marked *, read-out: t1/2 (values marked *)
  half-life at 1 μM: 19.2 h
